Data reported in ChEMBL document CHEMBL1275583, “First report of KPC-2-producing Klebsiella pneumoniae strains in Brazil” (2009).
Converted amounts (≈) assume the structure as drawn.

Assays:
Klebsiella pneumoniae [1] = test: Antibacterial activity against Klebsiella pneumoniae urine isolate A28009 PFGE pattern A expressing KPC-2, TEM-1, SHV-11, CTX-M-2 beta-lactamase by agar dilution method; format: functional
Klebsiella pneumoniae [2] = test: Antibacterial activity against Klebsiella pneumoniae blood isolate A28008 PFGE pattern A expressing KPC-2, TEM-1, SHV-11, CTX-M-2 beta-lactamase by agar dilution method; format: functional
Klebsiella pneumoniae [3] = test: Antibacterial activity against Klebsiella pneumoniae blood isolate A28006 PFGE pattern A expressing KPC-2, TEM-1, SHV-11, CTX-M-2 beta-lactamase by agar dilution method; format: functional
Escherichia coli [4] = settings: K-12 DH10B
Description: (§1) Antibacterial activity against Escherichia coli DH10B expressing KPC-2 CTX-M-2 by agar dilution method

Escherichia coli [5] = test: Antibacterial activity against Escherichia coli DH10B by agar dilution method; format: functional; settings: K-12 DH10B
Klebsiella pneumoniae [6] = test: Antibacterial activity against Klebsiella pneumoniae urine isolate A28011 PFGE pattern A expressing KPC-2 CTX-M-2 beta-lactamase by agar dilution method; format: functional
Escherichia coli [7] = test: microbe, parasite or virus in culture; settings: K-12 DH10B
Description: as §1

Klebsiella pneumoniae [8] = test: Antibacterial activity against Klebsiella pneumoniae urine isolate A28011 PFGE pattern A expressing KPC-2, CTX-M-2 beta-lactamase by Etest method; format: functional
Klebsiella pneumoniae [9] = test: Antibacterial activity against Klebsiella pneumoniae urine isolate A28009 PFGE pattern A expressing KPC-2, TEM-1, SHV-11, CTX-M-2 beta-lactamase by Etest method; format: functional
Escherichia coli [10] = test: Antibacterial activity against Escherichia coli DH10B by Etest method; format: functional; settings: K-12 DH10B
Escherichia coli [11] = test: Antibacterial activity against Escherichia coli DH10B expressing KPC-2 CTX-M-2 by Etest method; format: functional; settings: K-12 DH10B
Klebsiella pneumoniae [12] = test: Antibacterial activity against Klebsiella pneumoniae blood isolate A28008 PFGE pattern A expressing KPC-2, TEM-1, SHV-11, CTX-M-2 beta-lactamase by Etest method; format: functional
Klebsiella pneumoniae [13] = test: Antibacterial activity against Klebsiella pneumoniae blood isolate A28006 PFGE pattern A expressing KPC-2, TEM-1, SHV-11, CTX-M-2 beta-lactamase by Etest method; format: functional
Klebsiella pneumoniae [14] = test: Antibacterial activity against Klebsiella pneumoniae blood isolate A28006 PFGE pattern A expressing KPC-2, TEM-1, SHV-11, CTX-M-2 beta-lactamase by agar dilution method in presence of Tazobactam; format: functional
Klebsiella pneumoniae [15] = test: Antibacterial activity against Klebsiella pneumoniae urine isolate A28009 PFGE pattern A expressing KPC-2, TEM-1, SHV-11, CTX-M-2 beta-lactamase by agar dilution method in presence of Tazobactam; format: functional
Klebsiella pneumoniae [16] = test: Antibacterial activity against Klebsiella pneumoniae urine isolate A28011 PFGE pattern A expressing KPC-2, CTX-M-2 beta-lactamase by agar dilution method in presence of Tazobactam; format: functional
Klebsiella pneumoniae [17] = test: Antibacterial activity against Klebsiella pneumoniae blood isolate A28008 PFGE pattern A expressing KPC-2, TEM-1, SHV-11, CTX-M-2 beta-lactamase by agar dilution method in presence of Tazobactam; format: functional

GENTAMICIN showed an MIC (Klebsiella pneumoniae [1]) of 1 µg/mL, an MIC (Klebsiella pneumoniae [2]) of 1 µg/mL and an MIC (Klebsiella pneumoniae [3]) of 1 µg/mL. The MIC (Escherichia coli [4]) was 0.12 µg/mL, the MIC (Escherichia coli [5]) was 0.12 µg/mL and the MIC (Klebsiella pneumoniae [6]) was 1 µg/mL.
`C[C@@H](O)[C@H]1C(=O)N2C(C(=O)O)=C(S[C@@H]3CN[C@H](C(=O)N(C)C)C3)[C@H](C)[C@H]12` [MEROPENEM] gave an MIC (Escherichia coli [7]) of 0.5 µg/mL (≈ 1.3 µM), an MIC (Klebsiella pneumoniae [1]) of over 32 µg/mL and an MIC (Klebsiella pneumoniae [2]) of 4 µg/mL (≈ 10.4 µM). The MIC (Klebsiella pneumoniae [3]) was 32 µg/mL (≈ 83.4 µM), the MIC (Escherichia coli [5]) was 0.25 µg/mL (≈ 0.652 µM) and the MIC (Klebsiella pneumoniae [6]) was over 32 µg/mL.
`CO/N=C(\C(=O)N[C@@H]1C(=O)N2C(C(=O)O)=C(COC(C)=O)CS[C@H]12)c1csc(N)n1` [CEFOTAXIME] gave an MIC (Escherichia coli [7]) of 4 µg/mL (≈ 8.78 µM), an MIC (Klebsiella pneumoniae [1]) of over 256 µg/mL and an MIC (Klebsiella pneumoniae [2]) of over 256 µg/mL. It also gave an MIC (Klebsiella pneumoniae [3]) of over 256 µg/mL, an MIC (Escherichia coli [5]) of under 0.25 µg/mL and an MIC (Klebsiella pneumoniae [6]) of over 256 µg/mL.
For `C[C@@H](O)[C@H]1C(=O)N2C(C(=O)O)=C(SCCNC=N)C[C@H]12` [IMIPENEM ANHYDROUS], the MIC (Escherichia coli [7]) was 2 µg/mL (≈ 6.68 µM), the MIC (Klebsiella pneumoniae [1]) was 32 µg/mL (≈ 107 µM) and the MIC (Klebsiella pneumoniae [2]) was 32 µg/mL (≈ 107 µM). For the same compound, the MIC (Klebsiella pneumoniae [3]) was 4 µg/mL (≈ 13.4 µM) and the MIC (Klebsiella pneumoniae [6]) was 16 µg/mL (≈ 53.4 µM).
POLYMYXIN B showed an MIC (Klebsiella pneumoniae [1]) of 2 µg/mL, an MIC (Klebsiella pneumoniae [2]) of 2 µg/mL and an MIC (Klebsiella pneumoniae [3]) of 2 µg/mL. It also gave an MIC (Escherichia coli [4]) of 0.38 µg/mL, an MIC (Escherichia coli [5]) of 0.38 µg/mL and an MIC (Klebsiella pneumoniae [6]) of 2 µg/mL.
`CN(C)c1cc(NC(=O)CNC(C)(C)C)c(O)c2c1C[C@H]1C[C@H]3[C@H](N(C)C)C(O)=C(C(N)=O)C(=O)[C@@]3(O)C(O)=C1C2=O` [TIGECYCLINE] gave an MIC (Klebsiella pneumoniae [8]) of 0.5 µg/mL (≈ 0.854 µM), an MIC (Klebsiella pneumoniae [9]) of 0.38 µg/mL (≈ 0.649 µM) and an MIC (Escherichia coli [10]) of 0.06 µg/mL (≈ 0.102 µM). It also gave an MIC (Escherichia coli [11]) of 0.06 µg/mL (≈ 0.102 µM), an MIC (Klebsiella pneumoniae [12]) of 0.38 µg/mL (≈ 0.649 µM) and an MIC (Klebsiella pneumoniae [13]) of 0.38 µg/mL (≈ 0.649 µM).
Work on `C[C@H]1[C@H](NC(=O)/C(=N\OC(C)(C)C(=O)O)c2csc(N)n2)C(=O)N1S(=O)(=O)O` [AZTREONAM] yielded an MIC (Escherichia coli [7]) of 32 µg/mL (≈ 73.5 µM), an MIC (Klebsiella pneumoniae [1]) of over 256 µg/mL and an MIC (Klebsiella pneumoniae [2]) of 64 µg/mL (≈ 147 µM). For the same compound, the MIC (Klebsiella pneumoniae [6]) was over 256 µg/mL.
In the case of `CC(C)(O/N=C(\C(=O)N[C@@H]1C(=O)N2C(C(=O)[O-])=C(C[n+]3ccccc3)CS[C@H]12)c1csc(N)n1)C(=O)O` [CEFTAZIDIME], the MIC (Escherichia coli [7]) is reported as 4 µg/mL (≈ 7.32 µM), the MIC (Klebsiella pneumoniae [1]) is reported as 32 µg/mL (≈ 58.5 µM) and the MIC (Klebsiella pneumoniae [2]) is reported as 16 µg/mL (≈ 29.3 µM). The MIC (Klebsiella pneumoniae [3]) was 16 µg/mL (≈ 29.3 µM), the MIC (Escherichia coli [5]) was 0.25 µg/mL (≈ 0.457 µM) and the MIC (Klebsiella pneumoniae [6]) was 64 µg/mL (≈ 117 µM).
`CO/N=C(\C(=O)N[C@@H]1C(=O)N2C(C(=O)O)=C(CSc3nc(=O)c(O)nn3C)CS[C@H]12)c1csc(N)n1` [CEFTRIAXONE] showed an MIC (Escherichia coli [7]) of over 256 µg/mL, an MIC (Klebsiella pneumoniae [1]) of over 256 µg/mL and an MIC (Klebsiella pneumoniae [2]) of over 256 µg/mL. It also gave an MIC (Klebsiella pneumoniae [3]) of over 256 µg/mL, an MIC (Escherichia coli [5]) of 0.06 µg/mL (≈ 0.108 µM) and an MIC (Klebsiella pneumoniae [6]) of over 256 µg/mL.
For `CCN1CCN(C(=O)N[C@@H](C(=O)N[C@@H]2C(=O)N3[C@@H]2SC(C)(C)[C@@H]3C(=O)O)c2ccccc2)C(=O)C1=O` [PIPERACILLIN], the MIC (Klebsiella pneumoniae [14]) was 16 µg/mL, the MIC (Klebsiella pneumoniae [15]) was 16 µg/mL and the MIC (Klebsiella pneumoniae [16]) was 8 µg/mL. For the same compound, the MIC (Klebsiella pneumoniae [17]) was 16 µg/mL.
`CO/N=C(\C(=O)N[C@@H]1C(=O)N2C(C(=O)[O-])=C(C[N+]3(C)CCCC3)CS[C@H]12)c1csc(N)n1` was tested, and the MIC (Escherichia coli [7]) was 2 µg/mL (≈ 4.16 µM), the MIC (Klebsiella pneumoniae [1]) was 64 µg/mL (≈ 133 µM) and the MIC (Klebsiella pneumoniae [2]) was 32 µg/mL (≈ 66.6 µM). For the same compound, the MIC (Klebsiella pneumoniae [3]) was 128 µg/mL (≈ 266 µM), the MIC (Escherichia coli [5]) was 0.25 µg/mL (≈ 0.52 µM) and the MIC (Klebsiella pneumoniae [6]) was over 256 µg/mL.
In the case of `CO[C@@]1(NC(=O)Cc2cccs2)C(=O)N2C(C(=O)O)=C(COC(N)=O)CS[C@@H]21` [CEFOXITIN], the MIC (Escherichia coli [7]) is reported as 8 µg/mL (≈ 18.7 µM), the MIC (Klebsiella pneumoniae [1]) is reported as 64 µg/mL (≈ 150 µM) and the MIC (Klebsiella pneumoniae [2]) is reported as 16 µg/mL (≈ 37.4 µM). The MIC (Klebsiella pneumoniae [3]) was 32 µg/mL (≈ 74.9 µM), the MIC (Escherichia coli [5]) was 4 µg/mL (≈ 9.36 µM) and the MIC (Klebsiella pneumoniae [6]) was over 256 µg/mL.
